From patent publication US10940139B2, “Compounds that interact with the Ras superfamily for the treatment of cancers, inflammatory diseases, rasopathies, and fibrotic disease” (Shy Therapeutics LLC, priority 2017, dated 2021)

Tests used:
Assay in all cases: Ras GTP binding domain inhibition assay (labeled GTP)
KRas G12C mutant = KRas G12C mutant (Homo sapiens (Human), UniProt P01116, G12C); details: 20 μM compound; KRas G12C; read-out: % Inhibition at 20 μM of K-Ras mutant and wild-type protein, KRas G12C
Procedure, shortened: (§1)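 His-tagged KRas protein (3-10 μg/ml) was captured overnight at 4° C on nickel-coated wells in 50 mM Tris pH 7.5, 1 mM MgCl2, 1 mM DTT. Bound labeled GTP was read by fluorescence after washing.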

KRas wild type = KRas wild type (Homo sapiens (Human), UniProt P01116); details: 20 μM compound; KRas wild type; read-out: % Inhibition at 20 μM of K-Ras mutant and wild-type protein, KRas wild type
Procedure, shortened: as §1

KRas G12D mutant protein = KRas G12D mutant protein (Homo sapiens (Human), UniProt P01116, G12D); details: 20 μM compound; KRas G12D; read-out: % Inhibition at 20 μM of K-Ras mutant and wild-type protein, KRas G12D
Sequence of KRas G12D mutant protein (P01116-2 other isoform, or with tags, fused parts or gaps G12D): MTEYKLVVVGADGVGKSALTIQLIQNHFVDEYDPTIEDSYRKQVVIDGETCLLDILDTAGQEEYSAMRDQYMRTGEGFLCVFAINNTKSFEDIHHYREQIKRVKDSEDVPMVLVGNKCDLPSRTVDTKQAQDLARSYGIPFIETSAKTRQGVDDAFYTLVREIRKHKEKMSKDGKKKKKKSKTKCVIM

Sequence of KRas G12C mutant (P01116-2 other isoform, or with tags, fused parts or gaps G12C): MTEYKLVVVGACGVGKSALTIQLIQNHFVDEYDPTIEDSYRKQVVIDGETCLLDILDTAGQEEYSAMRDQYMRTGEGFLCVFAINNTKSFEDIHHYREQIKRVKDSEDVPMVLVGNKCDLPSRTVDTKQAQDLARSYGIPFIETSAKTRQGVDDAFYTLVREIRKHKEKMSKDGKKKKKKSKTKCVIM
Sequence of KRas wild type (P01116-2 other isoform, or with tags, fused parts or gaps): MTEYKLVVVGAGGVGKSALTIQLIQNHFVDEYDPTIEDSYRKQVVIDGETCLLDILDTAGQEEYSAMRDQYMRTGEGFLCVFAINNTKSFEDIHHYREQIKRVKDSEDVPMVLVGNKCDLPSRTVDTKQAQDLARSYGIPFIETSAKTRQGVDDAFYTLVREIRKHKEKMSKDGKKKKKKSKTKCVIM

| SMILES | inhibition at 20 µM (KRas G12C mutant) | inhibition at 20 µM (KRas wild type) | inhibition at 20 µM (KRas G12D mutant protein) |
| --- | --- | --- | --- |
| COCCNc1nc(-c2nccn2C)nc2sc(-c3ccccc3)c(-c3ccc(OC)cc3)c12 [drawing 3589] | 25 to 50% | 25 to 50% | 25 to 50% |
| COCCNc1nc(-c2nccn2C)nc2sc(C3CCOCC3)c(-c3ccccc3)c12 [drawing 3590] | 25 to 50% | 51 to 75% | 51 to 75% |
| COCCNc1nc(-c2cccc(N)n2)nc2sc(-c3ccccc3)c(-c3ccccc3)c12 [drawing 3591] | 1 to 25% | 0% | 0% |
| Cn1ccnc1-c1nc(O)c2sc(-c3ccccc3)c(-c3cccc(C(F)(F)F)c3)c2n1 [drawing 3592] | 0% | 1 to 25% | 0% |
| COc1ccc(-c2c(-c3ccccc3)sc3c(O)nc(-c4nccn4C)nc23)cn1 [drawing 3593] | 1 to 25% | 1 to 25% | 1 to 25% |
| Cc1sc2c(O)nc(-c3nccn3C)nc2c1-c1ccccc1 [drawing 3594] | 25 to 50% | 25 to 50% | 25 to 50% |
| Cn1ccnc1-c1nc(O)c2sc(-c3ccccc3)c(-c3ccccc3Cl)c2n1 [drawing 3595] | 51 to 75% | 25 to 50% | 51 to 75% |
| COCCNc1nc(-c2nccn2C)nc2sc(-c3ccccc3)c(-c3ccncc3)c12 [drawing 3596] | 25 to 50% | 51 to 75% | 51 to 75% |
| COCCNc1nc(-c2nccn2C)nc2sc(-c3ccc(OC)cc3)c(-c3ccccc3)c12 [drawing 3597] | 1 to 25% | 1 to 25% | 25 to 50% |
| Cn1ccnc1-c1nc(O)c2scc(-c3cccc(C(F)(F)F)c3)c2n1 [drawing 3598] | 1 to 25% | 25 to 50% | 25 to 50% |
| Cc1sc2c(O)nc(-c3nccn3C)nc2c1-c1cccc(C(F)(F)F)c1 [drawing 3599] | 1 to 25% | 1 to 25% | 1 to 25% |
| Cc1sc2c(O)nc(-c3nccn3C)nc2c1-c1ccc(OCC(C)C)nc1 [drawing 3600] | 1 to 25% | 1 to 25% | 1 to 25% |
| COc1ccc(-c2c(C)sc3c(O)nc(-c4nccn4C)nc23)cn1 [drawing 3601] | 1 to 25% | 1 to 25% | 1 to 25% |
| Cn1ccnc1-c1nc(O)c2scc(-c3cccc(OC(F)(F)F)c3)c2n1 [drawing 3603] | 1 to 25% | 25 to 50% | 51 to 75% |
| Cn1cnc(-c2nc(O)c3scc(-c4cccc(C(F)(F)F)c4)c3n2)c1 [drawing 3604] | 25 to 50% | 51 to 75% | 25 to 50% |
| CC(C)COc1ccc(-c2csc3c(O)nc(-c4cn(C)cn4)nc23)cn1 [drawing 3605] | 25 to 50% | 25 to 50% | 1 to 25% |
| Cn1cnc(-c2nc(O)c3scc(-c4cccc(OC(F)(F)F)c4)c3n2)c1 [drawing 3606] | 1 to 25% | 25 to 50% | 25 to 50% |
| Oc1nc(-c2ccncn2)nc2c(-c3cccc(C(F)(F)F)c3)csc12 [drawing 3607] | 25 to 50% | 25 to 50% | 1 to 25% |
| Oc1nc(-c2ncccn2)nc2c(-c3cccc(C(F)(F)F)c3)csc12 [drawing 3608] | 25 to 50% | 51 to 75% | 25 to 50% |
| CC(C)Oc1ccc(-c2csc3c(O)nc(-c4nccn4C)nc23)cc1F [drawing 3609] | 25 to 50% | 25 to 50% | 25 to 50% |
| Cc1sc2c(O)nc(-c3nccn3C)nc2c1-c1ccc(OC(C)C)c(F)c1 [drawing 3610] | 1 to 25% | 25 to 50% | 51 to 75% |
| CC(C)Oc1ccc(-c2c(-c3ccccc3)sc3c(O)nc(-c4nccn4C)nc23)cc1F [drawing 3611] | 1 to 25% | 25 to 50% | 25 to 50% |
| CC(C)COc1ccc(-c2csc3c(O)nc(-c4nccn4C)nc23)cn1 [drawing 3612] | 25 to 50% | 25 to 50% | 76 to 100% |
| COc1ccc(-c2csc3c(O)nc(-c4nccn4C)nc23)cn1 [drawing 3613] | 25 to 50% | 25 to 50% | 51 to 75% |
| Cn1ccnc1-c1nc(O)c2scc(-c3ccccc3)c2n1 [drawing 3614] | 25 to 50% | 25 to 50% | 51 to 75% |
